Earlier results in US20050032876A1, “Pharmaceutical compositions comprising sumatriptan and metoclopramide, and methods of use thereof” (priority 2003, published 2005).

Conditions: rapidly pre-systemically metabolized; very short half-life of the order of only about 2 hours

half-life: about 2 hours
SMILES: CNS(=O)(=O)Cc1ccc2[nH]cc(CCN(C)C)c2c1 [Sumatriptan]
